Data on two substances can be found in patent US7927791B2, “Methods for identifying small molecules that modulate premature translation termination and nonsense mediated mRNA decay” (PTC Therapeutics, Inc., priority 2002, dated 2011).

In assay [1] the test system is HIV-1 TAR element TAR RNA oligonucleotide. Briefly: Gel retardation assay by automated capillary electrophoresis (Tat peptide and TAR RNA). The class given is binding. As to conditions: increasing concentrations of Tat peptide, SCE9610 apparatus, FIG. 6. The protocol: FIG. 6. Gel retardation analysis to detect peptide-RNA interactions. In reactions containing increasing concentrations of Tat47-58 peptide (0.1 mM, 0.2 mM, 0.4 mM, 0.8 mM, 1.6 mM) 50 pmole TAR RNA oligonucleotide was added in TK buffer. The reaction mixture was then heated at 90° C. for 2 min and allowed to cool slowly to 24° C. The reactions were loaded onto a SCE9610 automated capillary electrophoresis apparatus (SpectruMedix; State College, Pennsylvania). The peaks correspond to the amount of free TAR RNA (“TAR”) or the Tat-TAR complex (“Tat-TAR”). The concentration of peptide added is indicated below each lane.
Tris-potassium chloride (TK) buffer is composed of 50 mM Tris-HCl pH 7.4, 20 mM KCl, 0.1% Triton X-100, and 0.5 mM MgC2. Tris-borate-EDTA (IBE) buffer is composed of 45 mM Tris-borate pH 8.0, and 1 mM EDTA. Tris-Potassium chloride-magnesium (TKM) buffer is composed of 50 mM Tris-HCl pH 7.4, 20 mM KCl, 0.1% Triton X-100 and 5 mM MgCl2.
RNA oligonucleotides were purchased from Dharmacon, Inc, Lafayette, Colo.). 500 pmole of a 5′ fluorescein labeled oligonucleotide corresponding to the HIV-1 TAR element TAR RNA (5′-[…]-3′ (SEQ ID NO: 2); Huq et al., 1999, Nucleic Acids Research. 27:1084-1093; Hwang et al., 1999, Proc. Natl. Acad. Sci. USA 96:12997-13002) was used. […]

The test system is the same in assay [2]. Nature of the assay: Gel retardation analysis of Tat peptide binding to TAR RNA (non-denaturing polyacrylamide gel). The conditions noted are these: 12% non-denaturing polyacrylamide gel, TK buffer, FIG. 2. The protocol:
FIG. 2. Gel retardation analysis to detect peptide-RNA interactions. In 20 μl reactions containing 50 pmole end-labeled TAR RNA oligonucleotide, increasing concentrations of Tat47-58 peptide (0.1 uM, 0.2 uM, 0.4 uM, 0.8 uM, 1.6 uM) was added in TK buffer. The reaction mixture was then heated at 90° C for 2 min and allowed to cool slowly to 24° C. 10 μl of 30% glycerol was added to each sample and applied to a 12% non-denaturing polyacrylamide gel. The gel was electrophoresed using 1200 volt-hours at 4° C. in TBE Buffer. Following electrophoresis, the gel was dried and the radioactivity was quantitated with a phosphorimager. The concentration of peptide added is indicated above each lane.
(§1) Tris-potassium chloride (TK) buffer is composed of 50 mM Tris-HCl pH 7.4, 20 mM KCl, 0.1% Triton X-100, and 0.5 mM MgCl2. Tris-borate-EDTA (TBE) buffer is composed of 45 mM Tris-borate pH 8.0, and 1 mM EDTA. Tris-Potassium chloride-magnesium (TKM) buffer is composed of 50 mM Tris-HCl pH 7.4, 20 mM KCl, 0.1% Triton X-100 and 5 mM MgCl2.
RNA oligonucleotides were purchased from Dharmacon, Inc, Lafayette, Colo.). […] The gel was exposed to an intensifying screen and radioactivity was quantitated using a Typhoon phosporimager molecular Dynamics).

The subject of assay [3] is RNA oligonucleotide corresponding to the 16S rRNA A site. Briefly: Gel mobility shift assay of gentamicin binding to the 16S rRNA A site oligonucleotide. The method, then: FIG. 3. Gentamicin interacts with an oligonucleotide corresponding to the 16S rRNA. 20 μl reactions containing increasing concentrations of gentamicin (1 ng/ml, 10 ng/ml, 100 ng/ml, 1 μg/ml, 10 μg/ml, 50 μg/ml, 500 μg/ml) were added to 50 pmole end-labeled RNA oligonucleotide in TKM buffer, heated at 90° C. for 2 min and allowed to cool slowly to 24° C. 10 μl of 30% glycerol was added to each sample and the samples were applied to a 13.5% non-denaturing polyacrylamide gel. The gel was electrophoresed using 1200 volt-hours at 4° C. in TBE Buffer. Following electrophoresis, the gel was dried and the radioactivity was quantitated using a phosphorimager. The concentration of gentamicin added is indicated above each lane.
(§2) FIG. 4. The presence of 10 pg/ml gentamicin produces a gel mobility shift in the presence of the 16S rRNA oligonucleotide. 20 μl reactions containing increasing concentrations of gentamicin (100 ng/ml, 10 ng/ml, 1 ng/ml, 100 pg/ml, and 10 pg/ml) were added to 50 pmole end-labeled RNA oligonucleotide in TKM buffer were treated as described for FIG. 3.
FIG. 5. Gentamicin binding to the 16S rRNA oligonucleotide is weak in the absence of MgCl2.
as §1
RNA oligonucleotides were purchased from Dharmacon, Inc, Lafayette, Colo.). 500 pmole of either a 5′ fluorescein labeled oligonucleotide corresponding to the 16S rRNA A site (5′-[…]-3′ (SEQ ID NO:1); Moazed & Noller, 1987, Nature 327:389-394; Woodcock et al., 1991, EMBO J. 10:3099-3103; Yoshizawa et al., 1998, EMBO J. 17:6437-6448) or a 5′ fluorescein labeled oligonucleotide corresponding to the HIV-1 TAR element TAR RNA (5′-[…]-3′ (SEQ ID NO: 2); Huq et al., 1999, Nucleic Acids Research. 27:1084-1093; Hwang et al., 1999, Proc. Natl. Acad. Sci. USA 96:12997-13002) was 3′ labeled with 5′-^32P cytidine 3′,5′-bis(phosphate) (NEN) and T4 RNA ligase (NEBiolabs) in 10% DMSO as per manufacturer's instructions. The labeled oligonucleotides were purified using G-25 Sephadex columns (Boehringer Mannheim). For Tat-TAR gel retardation reactions the method of Huq et al. (Nucleic Acids Research, 1999, 27:1084-1093) was utilized with TK buffer containing 0.5 mM MgCl2 and a 12-mer Tat peptide (YGRKKRRQRRRP (SEQ ID NO: 3; single letter amino acid code). For 16S rRNA-gentamicin reactions, the method of Huq et al was used with TKM buffer. In 20 μl reaction volumes 50 pmoles of ^32P cytidine-labeled oligonucleotide and either gentamicin sulfate (Sigma) or the short Tat peptide (Tat47-58) in TK or TKM buffer were heated at 90° C. for 2 minutes and allow to cool to room temperature (approximately 24° C.) over 2 hours. Then 10 μl of 30% glycerol was added to each reaction tube and the entire sample was loaded onto a TBE non-denaturing polyacrylamide gel and electrophoresed at 1200-1600 volt-hours at 4° C. The gel was exposed to an intensifying screen and radioactivity was quantitated using a Typhoon phosporimager molecular Dynamics).

Assay [4] relates to HIV TAR RNA element oligonucleotide. Nature of the assay: Gel mobility shift specificity control: gentamicin with an unrelated oligonucleotide. In kind it is binding. The conditions noted are these: incubated with 10 mg/ml gentamicin, FIG. 4. The method, then: as §2
RNA oligonucleotides were purchased from Dharmacon, Inc, Lafayette, Colo.). 500 pmole of either a 5′ fluorescein labeled oligonucleotide corresponding to the 16S rRNA A site (5′-[…]-3′ (SEQ ID NO:1); Moazed & Noller, 1987, Nature 327:389-394; Woodcock et al., 1991, EMBO J. 10:3099-3103; Yoshizawa et al., 1998, EMBO J. 17:6437-6448) or a 5′ fluorescein labeled oligonucleotide corresponding to the HIV-1 TAR element TAR RNA (5′-[…]-3′ (SEQ ID NO: 2); Huq et al., 1999, Nucleic Acids Research. 27:1084-1093; Hwang et al., 1999, Proc. Natl. Acad. Sci. USA 96:12997-13002) was 3′ labeled with 5′-^32P cytidine 3′,5′-bis(phosphate) (NEN) and T4 RNA ligase (NEBiolabs) in 10% DMSO as per manufacturer's instructions. The labeled oligonucleotides were purified using G-25 Sephadex columns (Boehringer Mannheim). […] The gel was exposed to an intensifying screen and radioactivity was quantitated using a Typhoon phosporimager molecular Dynamics). […]

In the case of YGRKKRRQRRRP [Tat47-58 peptide], the “shift of TAR RNA peak in capillary electrophoresis” value in assay [1] was “a clear shift is visible”. Besides, the “gel mobility shift of TAR RNA oligonucleotide in the presence of the peptide” value in assay [2] is “a clear shift is visible”.
With gentamicin, in assay [3] (TKM buffer (5 mM MgCl2), 1 ng/ml to 500 μg/ml tested, FIG. 3), the “lowest gentamicin concentration that produces the mobility shift” value is no more than 10 ng/mL. Also, the “gel shift when gentamicin is added after renaturation has proceeded to 75° C.” value in assay [3] (added after the renaturation step has proceeded to 75° C.) is given as “a mobility shift is not produced”. In addition, the “gentamicin binding to the 16S rRNA oligonucleotide in the absence of MgCl2” value in assay [3] (buffer without MgCl2, FIG. 5) is listed as “weak”. Besides, in assay [3] (gentamicin present during entire denaturation/renaturation cycle, data not shown), the “gel shift when gentamicin is added at 90° C. or 85° C.” value is listed as “a gel shift is visualized”. The “gentamicin concentration that must be added to produce a gel shift when MgCl2 is not present” value in assay [3] (no MgCl2 (TK buffer), FIG. 5) is 1 mg/mL. In addition, in assay [3] (varying concentrations, TKM buffer, FIG. 3), the “mobility shift of 16S rRNA A site oligonucleotide on addition of gentamicin” value was “produces a mobility shift”. Also, the “gel mobility shift of unrelated HIV TAR RNA oligonucleotide” value in assay [4] was “does not result in a gel mobility shift”.
